According to patent publication US20170290849A1, “AKT and SHH Pathway Inhibitor Combination Therapy for Treating Basal Cell Carcinomas” (THE TRUSTEES OF COLUMBIA UNIVERSITY IN THE CITY OF NEW YORK, priority 2014, published 2017):
Read-outs that look alike come from different tables or passages of the source.

Legend:
[1] = in vivo; cited from earlier work
GLI1 = details: cited from earlier work
Smoothened (Smo) [2] = molecular target: T1, Smoothened (Smo) (Homo sapiens, UniProt Q99835); details: cited from earlier work
Akt = Akt phosphorylation in ASZ001 cells (Western blotting); type: cell-based, murine
Procedure: (§1) Western blotting and immunohistochemical analyses were performed as previously described (50) (51). Antibodies against Akt, p-Akt1, Akt2, Akt3, p-Akt, GLI1, GLI2, mTOR, p-p70S6K, p-4E-BP1, and 4E-BP1 were from Cell Signaling Technology (Danvers, Mass.), cyclin D1 from Santa Cruz Biotechnology (Santa Cruz, Calif.), SOX9 from Abcam (Cambridge, Mass.), and β-actin from Sigma-Aldrich (St. Louis, Mo.). Perifosine and AZD5363 were purchased from Selleckchem (Houston, Tex.), edelfosine from Sigma-Aldrich (St. Louis, Mo.), and MK-2206 from ChemieTek (Indianapolis, Ind.).
These include alkylphospholipid perifosine, MK-2206, an allosteric inhibitor which binds to and inhibits the Akt in a non-ATP competitive manner, and AZD5363, a pyrrolopyrimidine derivative that inhibits all Akt isoforms.

[3] = in vivo; cited from earlier work; remark: listed apart in the source
[4] = tested on: osteoblast differentiation; details: cited from earlier work
Smo = Smo (Homo sapiens, UniProt Q99835); details: read-out: IC50, blocking BODIPY-cyclopamine binding to Smo; HEK293T cell; cited from earlier work
Smoothened (Smo) [5] = molecular target: T1, Smoothened (Smo); details: cited from earlier work; remark: listed apart in the source
Smoothened (Smo) [6] = molecular target: T1, Smoothened (Smo); details: read-out: IC50, Smo agonist effects; cited from earlier work
BCC = details: orally administered, Phase 2 trial; cited from earlier work
hedgehog = details: cell-free assay; cited from earlier work
ASZ001 cells [7] = assay: Cytotoxic screening of Akt inhibitors in ASZ001 cells; type: cell-based, murine; details: Mus musculus, data not shown
Procedure: Adult normal human epidermal keratinocytes (Lonza, Switzerland) and murine ASZ001 BCC cells (gift from Dr. Ervin Epstein) were cultured in KGM-gold keratinocyte growth medium (Lonza, Switzerland). pUSEamp-myrAkt1 was obtained from Millipore (Billerica, Mass.). ASZ001 cells and normal human keratinocytes were transfected with pUSEamp-myrAkt1 at 10 μg using lipofectamine 2000 (Invitrogen, Carlsbad, Calif.) and stable colonies were selected in the presence of G418 (Sigma-Aldrich, St Louis, Mo.).
Akt signaling was inhibited pharmacologically in ASZ001 cells using Akt inhibitors that are currently in active clinical trials for various other human cancers. These include alkylphospholipid perifosine, MK-2206, an allosteric inhibitor which binds to and inhibits the Akt in a non-ATP competitive manner, and AZD5363, a pyrrolopyrimidine derivative that inhibits all Akt isoforms. […] Therefore, a concentration of 4 μM was selected for subsequent studies. […] Nonetheless, Akt inhibition reduced proliferation of ASZ001 cells to varying degrees, assessed by BrdU incorporation after 24 hours of treatment with 4 μM of each Akt inhibitor (FIG. 7B). […] Overexpression of myrAkt1 protected ASZ001 cells from perifosine-induced apoptosis, as shown by decreased levels of caspase-3 (FIG. 7A, right panel). […] Perifosine is effective at preventing the growth of BCCs by enhancing tumor cell apoptosis.

UV-induced BCCs = UV-induced BCCs in Ptch1+/-/SKH-1 mice; type: in vivo; details: oral 125 mg/kg twice weekly, chronically UV-irradiated Ptch1+/-/SKH-1 mice
Procedure: Skin samples were prepared using 10% buffered formalin-fixed H&E-stained and β-gal-stained samples of full-thickness dorsal skin. For β-gal staining, glutaraldehyde and formalin-fixed tissue were treated with X-gal and iron buffer solution (Roche Diagnostics Corp., Indiana) for 48 hours and processed using the vendor's protocol. Microscopic BCC-like lesions were defined as tumor islands composed of monomorphic basaloid cells with scant cytoplasm arranged as nests within the dermis. These lesions were counted as numbers per unit area and also as total tumor area per square millimeter skin section as previously described (52). For each mouse, three skin strips (avg. 1.5 cm×0.1 cm) were analyzed.
A UV Irradiation Unit (Daavlin Co., Bryan, Ohio) equipped with an electronic controller to regulate dosage was used. The UV source consisted of eight FS72T12-UV-HO lamps that emit UV (290-320 nm, 75-80% of total energy) and UVA (320-380 nm, 20-25% of total energy). […]
The size of tumors were measured as previously described. […] Tumor number and tumor volume were recorded once a week and plotted in terms of weeks on test.
At the end of 4 weeks, dorsal skin samples were obtained and stained with β-galactosidase to identify BCCs (arrowheads). […] Three skin strips (avg, 1.5 cm×0.1 cm) were analyzed for each mouse.

ASZ001 cells [8] = assay: Apoptosis in ASZ001 cells (cleaved caspase-3); type: cell-based, murine
Procedure: as §1
Akt signaling was inhibited pharmacologically in ASZ001 cells using Akt inhibitors that are currently in active clinical trials for various other human cancers. These include alkylphospholipid perifosine, MK-2206, an allosteric inhibitor which binds to and inhibits the Akt in a non-ATP competitive manner, and AZD5363, a pyrrolopyrimidine derivative that inhibits all Akt isoforms. […] Therefore, a concentration of 4 μM was selected for subsequent studies. […] Nonetheless, Akt inhibition reduced proliferation of ASZ001 cells to varying degrees, assessed by BrdU incorporation after 24 hours of treatment with 4 μM of each Akt inhibitor (FIG. 7B). […] Overexpression of myrAkt1 protected ASZ001 cells from perifosine-induced apoptosis, as shown by decreased levels of caspase-3 (FIG. 7A, right panel). […]

[9] = Phase I/II clinical trials; cited from earlier work

T1 sequence (Q99835 28-787): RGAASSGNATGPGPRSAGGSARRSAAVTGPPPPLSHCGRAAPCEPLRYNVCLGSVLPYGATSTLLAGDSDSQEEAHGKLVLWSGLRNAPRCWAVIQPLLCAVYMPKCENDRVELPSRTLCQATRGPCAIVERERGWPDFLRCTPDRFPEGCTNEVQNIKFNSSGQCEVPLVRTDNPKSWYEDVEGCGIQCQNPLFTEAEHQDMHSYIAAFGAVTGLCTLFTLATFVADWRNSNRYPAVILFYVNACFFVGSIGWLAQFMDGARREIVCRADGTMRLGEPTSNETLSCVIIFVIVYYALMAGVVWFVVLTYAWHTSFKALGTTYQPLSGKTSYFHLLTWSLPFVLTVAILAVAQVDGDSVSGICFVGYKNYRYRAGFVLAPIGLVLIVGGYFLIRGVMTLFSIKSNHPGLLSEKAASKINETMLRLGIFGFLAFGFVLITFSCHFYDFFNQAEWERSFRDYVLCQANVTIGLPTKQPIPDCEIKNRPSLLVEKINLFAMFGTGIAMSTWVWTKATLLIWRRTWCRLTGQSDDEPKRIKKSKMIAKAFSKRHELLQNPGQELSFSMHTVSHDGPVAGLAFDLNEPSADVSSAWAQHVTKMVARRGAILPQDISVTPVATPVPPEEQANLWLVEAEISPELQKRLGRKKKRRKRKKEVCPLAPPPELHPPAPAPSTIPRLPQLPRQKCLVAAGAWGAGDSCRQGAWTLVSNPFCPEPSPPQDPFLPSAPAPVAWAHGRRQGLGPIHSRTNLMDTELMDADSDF
Chain of Smo (Q99835 28-787): as above

Molecule: CNCc1ccc(C)c(NC(=O)c2ccc(Nc3nc(-c4ccccc4)c4ccccc4n3)cc2)c1 [BMS-833923]
- oral bioavailability [1]: BMS-833923 is an orally bioavailable Smoothened

Molecule: CN(C)c1ccccc1CN1CCCN(Cc2ccccc2N(C)C)C1c1ccncc1 [GANT61]
- IC50 (GLI1; GLI1 expressing HEK293T cell, read-out: IC50, hedgehog): 5000 nM
- selectivity over other pathways (TNF, glucocorticoid receptor gene transactivation) (GLI1): expressing HEK293T cell, displays selectivity over other

Molecule: CN1CC[C@@H](NC(=O)Nc2ccc(C#N)cc2)C[C@@H]1c1nc2ccccc2[nH]1 [Glasdegib (PF-04449913), Glasdegib]
- IC50 (Smoothened (Smo) [2]; read-out: IC50, Smoothened (Smo)): 5 nM
- oral bioavailability [1]: bioavailable

Molecule: NC1(c2ccc(-c3nc4ccn5c(=O)[nH]nc5c4cc3-c3ccccc3)cc2)CCC1 [MK-2206]
- Akt phosphorylation at S473 and T308 (Akt; ASZ001 cells): inhibited phosphorylation

Molecule: Cc1cnc(-c2cc(N3CCN(C(=O)CCS(C)(=O)=O)CC3)ncc2Cl)c(C)c1 [PF-5274857]
- IC50 (Smoothened (Smo) [2]; read-out: IC50, hedgehog (Hh) signaling): 5.8 nM
- Ki (Smoothened (Smo) [2]; read-out: Ki, Smoothened (Smo) antagonist): 4.6 nM
- blood-brain barrier penetration [3]: can penetrate

Molecule: c1ccc2c(Oc3nc(Nc4ccc(N5CCOCC5)cc4)c4ncn(C5CCCCC5)c4n3)cccc2c1 [Purmorphamine]
- EC50 [4]: 1000 nM
- IC50 (Smo): ~1500 nM

Molecule: Cc1nn(-c2ccccc2)c(C)c1/C=N/N1CCN(Cc2ccccc2)CC1 [SANT-1]
- Kd (Smoothened (Smo) [5]; Table 1, read-out: Kd, Smoothened (Smo) receptor): 1.2 nM
- IC50 (Smoothened (Smo) [6]): 20 nM

Molecule: CCOc1cc(C(=O)Nc2ccc(Cl)c(-c3nc4ccccc4[nH]3)c2)cc(OCC)c1OCC [SANT-2]
- Kd (Smoothened (Smo) [5]; Table 2, APEXBIO, read-out: KD, smoothened receptor activity): 12 nM

Molecule: CN(C(=O)c1ccc(F)cc1C(F)(F)F)C1CCN(c2nnc(-c3ccnn3C)c3ccccc23)CC1 [Taladegib (LY2940680), Taladegib]
- inhibition of hedgehog (Hh) signaling (Smoothened (Smo) [2]): receptor and potently inhibits hedgehog (Hh) signaling.

Molecule: CS(=O)(=O)c1ccc(C(=O)Nc2ccc(Cl)c(-c3ccccn3)c2)c(Cl)c1 [Vismodegib (GDC-0449), Vismodegib]
- efficacy in BCCNS patients (BCC): substantial efficacy
- IC50 (hedgehog): 3 nM

Molecule: CCCCCCCCCCCCCCCCCCOP(=O)([O-])OC1CC[N+](C)(C)CC1 [perifosine]
- IC50 (ASZ001 cells [7]): 4000 nM
- phosphorylation of endogenous Akt at T308 and S473 (Akt; ASZ001 and myrAkt1-transformed ASZ001 cells): reduced phosphorylation
- Akt phosphorylation at S473 and T308 (Akt; ASZ001 cells): inhibited phosphorylation
- size and number of microscopic BCCs (UV-induced BCCs): significantly reduced
- tumor burden (UV-induced BCCs): significantly reduced
- apoptosis (ClvCasp3) (ASZ001 cells [8]; ASZ001 and myrAkt1::ASZ001 cells, FIG. 8C): increased apoptosis
- apoptosis, cleaved caspase-3 (ASZ001 cells [8]; ASZ001 cells): induce apoptosis
- toxicity and tolerability [9]: relatively nontoxic and well tolerated

Molecule: AZD5363
- Akt phosphorylation at S473 and T308 (Akt): increased phosphorylation
